According to patent US7141560B2, “Alanine 2,6-dialkoxyphenyl ester derivatives as hypnotics” (Akzo Nobel N.V., priority 2001, dated 2006):

Tested on: mice
Assay: Hypnotic activity: loss of righting reflex after intravenous injection in mice
Type: in vivo
Details: intravenous injection over 10 seconds, dose causing loss of righting reflex for minimum 30 seconds in 50% of treated mice; for ED50: Mus musculus, read-out: HD50 (hypnotic dose50)
Description: The hypnotic potency of the alanine 2,6-dialkoxyphenyl ester derivatives of the invention was determined upon their intravenous administration in mice. The dose required to cause a loss of righting reflex for a minimum period of 30 seconds in 50% of treated mice after intravenous injection over 10 seconds was determined. This dose is termed the HD50 (hypnotic dose50) and is expressed in μmol.kg^−1. These in vivo experiments were carried out as described in detail by Anderson et al., J. Med. Chem. 1997, 40, 1668–1681.

| Compound | HD50 (hypnotic dose50) [µmol/kg] | ED50 [µmol/kg] |
| --- | --- | --- |
| COCC(C(=O)Oc1c(OC)cc(C)cc1OC)N1CCCOCC1 (stereo not shown) [Example 3m, 2-[4-(Hexahydro-1-oxazepinyl)]-3-methoxypropionic acid, 2,6-dimethoxy-4-methylphenyl ester] | 31 |  |
| COCCN(CCOC)C(COC)C(=O)Oc1c(OC)cc(C)cc1OC (stereo not shown) [Example 51c, (ξ)-2-[N-Bis(2-methoxyethyl)amino]-3-methoxypropionic acid, 2,6-dimethoxy-4-methylphenyl ester] | 24 |  |
| COC(=O)CCC(C(=O)Oc1c(OC)cc(C)cc1OC)N1CCCCC1.Cl (stereo not shown) [Example 49b, Pentanedioic acid, 2-(1-piperidinyl)-, 1-(2,6-dimethoxy-4-methylphenyl)ester, 5-methyl ester hydrochloride (1:1) salt] | 47 |  |
| COc1cccc(OC)c1OC(=O)C(CN1CCOCC1)N1CCCCC1 (stereo not shown) [Example 19g, 3-(4-Morpholinyl)-2-(1-piperidinyl)propanoic acid, 2,6-dimethoxyphenyl ester] |  | 15 |
| COCCC(C(=O)Oc1c(OC)cccc1OC)N1CC=CCC1 (stereo not shown) [Example 10c, 4-Methoxy-2-[1-(1,2,3,6-tetrahydropyridinyl)]butyric acid, 2,6-dimethoxyphenyl ester] | 22 |  |
| COC(=O)CCC(C(=O)Oc1c(OC)cc(C)cc1OC)N1CCCC1.Cl (stereo not shown) [Example 49a, Pentanedioic acid, 2-(1-pyrrolidinyl)-, 1-(2,6-dimethoxy4-methylphenyl)-ester, 5-methyl ester hydrochloride (1:1) salt] | 50 |  |
| COCCC(C(=O)Oc1c(OC)cccc1OC)N1CCCOCC1 (stereo not shown) [Example 51b, (ξ)-2-[4-(Hexahydro-1-oxazepinyl)]-4-methoxybutyric acid,2,6-dimethoxyphenyl ester] | 30 |  |
| COc1cccc(OC)c1OC(=O)C(CCN1CCOCC1)N1CCOCC1 (stereo not shown) [Example 21a, 2,4-Di-(4-morpholinyl)butanoic acid, 2,6-dimethoxyphenyl ester] |  | 50 |
| CCOCCN(CCOCC)C(CCOC)C(=O)Oc1c(OC)cc(C)cc1OC (stereo not shown) [Example 10m, 2-[N-(Bis(2-ethoxyethyl)amino)]-4-methoxybutyric acid, 2,6-dimethoxy-4-methylphenyl ester] | 25 |  |
| CC[C@@H]1CN(C(CN2CCOCC2)C(=O)Oc2c(OC)cccc2OC)CCO1 (stereo partly drawn) [Example 19e, 2-[(R)-4-(2-Ethylmorpholinyl)]-3-(4-morpholinyl)propanoic acid, 2,6-dimethoxyphenyl ester] | 27 |  |
| COc1cccc(OC)c1OC(=O)C(CN1CCSCC1)N1CCSCC1 (stereo not shown) [Example 18a, 2,3-Di-(N-thiomorpholinyl)propanoic acid, 2,6-dimethoxyphenyl ester] |  | 15 |
| COc1cccc(OC)c1OC(=O)C(CCSC)N1CCCCCC1 (stereo not shown) [Example 40c, Butanoic acid, 2-(1-hexahydroazepinyl)-4-(methylthio), 1-(2,6-dimethoxyphenyl)ester] | 18 |  |
| COc1cccc(OC)c1OC(=O)C(CCSC)N1CCCC1 (stereo not shown) [Example 40b, Butanoic acid, 4-(methylthio)-2-(1-pyrrolidinyl)-, 1-(2,6-dimethoxyphenyl)ester] | 40 |  |
| COc1cccc(OC)c1OC(=O)C(CN1CCSCC1)N1CCOCC1 (stereo not shown) [Example 19i, 2-(4-Morpholinyl)-3-(N-thiomorpholinyl)propanoic acid, 2,6-dimethoxyphenyl ester] |  | 19 |
| COCC(C(=O)Oc1c(OC)cccc1OC)N1CCCOCC1 (stereo not shown) [Example 3a, 2-[4-(Hexahydro-1-oxazepinyl)]-3-methoxypropionic acid, 2,6-dimethoxyphenyl ester] | 30 |  |
| CCOCCC(C(=O)Oc1c(OC)cccc1OC)N1CCOCC1 (stereo not shown) [Example 10o, 4-Ethoxy-2-[4-morpholinyl]butyric acid, 2,6-dimethoxyphenyl ester] |  | 36 |
| COCCC(C(=O)Oc1c(OC)cc(C)cc1OC)N(CCOC)CCOC (stereo not shown) [Example 10l, 2-[N-(Bis(2-methoxyethyl)amino)]-4-methoxybutyric acid, 2,6-dimethoxy-4-methylphenyl ester] | 26 |  |
| COc1cc(C)cc(OC)c1OC(=O)C(CCSC)N1CCCC1 (stereo not shown) [Example 39b, Butanoic acid, 4-(methylthio)-2-(1-pyrrolidinyl)-, 1-(2,6-dimethoxy-4-methylphenyl)ester] | 31 |  |
| CCOCCN(CCOCC)C(CCC(=O)OC)C(=O)Oc1c(OC)cc(C)cc1OC.Cl (stereo not shown) [Example 50] | 40 |  |
| COCCN(C)C(COC)C(=O)Oc1c(OC)cc(C)cc1OC (stereo not shown) [Example 3l, 3-Methoxy-2-[N-(2-Methoxyethyl)methylamino]propionic acid, 2,6-dimethoxy-4-methylphenyl ester] |  | 58 |

| Compound | HD50 (hypnotic dose50) [µmol/kg] | ED50 [µmol/kg] |
| --- | --- | --- |
| COC(=O)CC(C(=O)Oc1c(OC)cc(C)cc1OC)N1CCCCC1 (stereo not shown) [Example 28b, Butanedioic, 2-(1-piperidinyl)-, 1-(2,6-dimethoxy-4-methylphenyl)ester, 4-methyl ester] | 48 |  |
| CCOCCC(C(=O)Oc1c(OC)cc(C)cc1OC)N1CCCCCC1 (stereo not shown) [Example 10u, 4-Ethoxy-2-[1-hexahydroazepinyl]butyric acid, 2,6-dimethoxy-4-methylphenyl ester] |  | 17 |
| CCOCCC(C(=O)Oc1c(OC)cccc1OC)N1CCCOCC1 (stereo not shown) [Example 10p, 4-Ethoxy-2-[4-(hexahydro-1-oxazepinyl)]butyric acid, 2,6-dimethoxyphenyl ester] | 23 |  |
| COCCN(CCOC)C(CCSC)C(=O)Oc1c(OC)cc(C)cc1OC (stereo not shown) [Example 39c, Butanoic acid, 2-[N-bis(2-methoxyethyl)amino]-4-(methylthio), 1-(2,6-dimethoxy-4-methylphenyl)ester] | 23 |  |
| COCCC(C(=O)Oc1c(OC)cc(C)cc1OC)N1CCC(OC)CC1 (stereo not shown) [Example 10k, 4-Methoxy-2-[1-(4-methoxypiperidinyl)]butyric acid, 2,6-dimethoxy4-methylphenyl ester] | 34 |  |
| COC(=O)CCC(C(=O)Oc1c(OC)cccc1OC)N1CCCCC1.Cl (stereo not shown) [Example 47a, Pentanedioic acid, 2-(1-piperidinyl)-, 1-(2,6-dimethoxyphenyl)ester, 5-methyl ester hydrochloride (1:1) salt] | 50 |  |
| COCC(C(=O)Oc1c(OC)cc(C)cc1OC)N1CCSCC1 (stereo not shown) [Example 3j, 3-Methoxy-2-[N-thiomorpholinyl]propionic acid, 2,6-dimethoxy-4-methylphenyl ester] |  | 42 |
| COCCN(CCOC)C(CCC(=O)OC)C(=O)Oc1c(OC)cccc1OC.Cl (stereo not shown) [Example 48, Pentanedioic acid, 2-[bis-(2-methoxyethyl)amino]-, 1-(2,6-dimethoxyphenyl)ester, 5-methyl ester hydrochloride (1:1) salt] | 37 |  |
| COCCC(C(=O)Oc1c(OC)cccc1OC)N1CCOCC1 (stereo not shown) [Example 10b, 4-Methoxy-2-[4-morpholinyl]butyric acid, 2,6-dimethoxyphenyl ester] |  | 38 |
| COCCC(C(=O)Oc1c(OC)cccc1OC)N1CCCCCC1 (stereo not shown) [Example 10e, 2-[1-(Hexahydroazepinyl)]-4-methoxybutyric acid, 2,6-dimethoxyphenyl ester] | 17 |  |
| COCC(C(=O)Oc1c(OC)cccc1OC)N1CCSCC1 (stereo not shown) [Example 3c, 3-Methoxy-2-[N-thiomorpholinyl]propionic acid, 2 ,6-dimethoxyphenyl ester] | 21 |  |
| COc1cc(C)cc(OC)c1OC(=O)C(CCS(C)(=O)=O)N1CC=CCC1 (stereo not shown) [Example 43, Butanoic acid, 4-(methylsulphonyl)-2-(1-[1,2,3,6-tetrahydropyridinyl])-, 1-(2,6-dimethoxy-4-methylphenyl)ester] | 39 |  |
| COc1cccc(OC)c1OC(=O)C(CCSC)N1CCCCC1 (stereo not shown) [Example 40a, Butanoic acid, 4-(methylthio)-2-(1-piperidinyl)-, 1-(2,6-dimethoxyphenyl)ester] | <26 |  |
| CCOCCN(CCOCC)C(COC)C(=O)Oc1c(OC)cc(C)cc1OC (stereo not shown) [Example 3q, 2-[N-Bis(2-ethoxyethyl)amino]-3-methoxypropionic acid, 2,6-dimethoxy-4-methylphenyl ester] | 23 |  |
| CCOCCN(CCOCC)C(CCOC)C(=O)Oc1c(OC)cccc1OC (stereo not shown) [Example 10g, 2-[N-(Bis(2-ethoxyethyl)amino)]-4-methoxybutyric acid, 2,6-dimethoxyphenyl ester] | 28 |  |
| CCOCC(C(=O)Oc1c(OC)cccc1OC)N1CCCOCC1 (stereo not shown) [Example 3r, 3-Ethoxy-2-[4-(Hexahydro-1-oxazepinyl)]propionic acid, 2,6-dimethoxyphenyl ester] | 20 |  |
| COCC(C(=O)Oc1c(OC)cc(C)cc1OC)N1CCCC1 (stereo not shown) [Example 3n, 3-Methoxy-2-[1-pyrrolidinyl]propionic acid, 2,6-dimethoxy-4-methylphenyl ester] |  | 34 |
| 2-[N-(Hexahydroazepinyl)]-3-methoxypropionic acid, 2,6-dimethoxyphenyl ester [Example 3d] | 22 |  |
| CCOCCC(C(=O)Oc1c(OC)cc(C)cc1OC)N1CCOCC1 (stereo not shown) [Example 10t, 4-Ethoxy-2-[4-morpholinyl]butyric acid, 2,6-dimethoxy-4-methylphenyl ester] |  | 36 |
| COC[C@H](C(=O)Oc1c(OC)cccc1OC)N1CCCOCC1 [Example 52a, 2R-[4-(Hexahydro-1-oxazepinyl)]-3-methoxypropionic acid, 2,6-dimethoxyphenyl ester] |  | 16 |
